Measured values taken from patent US9844531B2, “Methods of maintaining and improving muscle function” (ABBOTT LABORATORIES, priority 2013, dated 2017).
Values joined by “and” are separate entries in the source; they are usually repeats but may differ in a detail not shown here. Equal entries are not always repeated. “Also recorded” adds a separate entry of the source.

Columns and labels:
[1] = system: VEGF; assay: VEGF level after 8 weeks of dietary EGCg supplementation in aged SD rats (multi-analyte profiling); assay type: in vivo, Sprague Dawley rat; details: for VEGF: gastrocnemius muscle lysate, 22 mos at sacrifice
Description: (§1) Example 3 illustrates the effect of 8 weeks of dietary EGCg supplementation on skeletal muscle biomarkers in the aged Sprague Dawley (SD) rat model of sarcopenia. More particularly, gastrocnemius muscle lysates of aged SD rats administered EGCg were analyzed for changes in various skeletal muscle biomarkers.
(§2) In Vivo Study 1—Aged (25 Months Old) Vs. Adult (13 Months Old)-Male SD rats (12 months old; adult rats; Dataset A) and male SD rats (24 months old; aged rats; Dataset B) were purchased from Harlan (Indianapolis, Ind.). The rats were single-housed in cages with hardwood chip bedding and were exposed to a 12-hour light cycle. At receipt, rats had ad libitum access to natural chow (Teklad Global 18% Protein Rodent Diet, catalog #2018S, Harlan) and water during adaptation to the animal facility. Adult rats (Dataset A) were 13 months old at the time of sacrifice, and aged rats (Dataset B) were 25 months old at the time of sacrifice. The right gastrocnemius muscle of the rats were collected and flash-frozen on liquid nitrogen.
(§3) In Vivo Study 2—EGCg Supplementation-Male SD rats (19 months old) were purchased from Harlan (Indianapolis, Ind.). The rats were single-housed in cages with hardwood chip bedding and were exposed to a 12-hour light cycle. At receipt, rats had ad libitum access to purified diet AIN-93M (Research Diets, #D10012M) and water during adaptation to the animal facility. Subsequently, the rats were given ad libitum access to AIN-93M diet supplemented with EGCg-rich (>95%) Teavigo® at 200 mg/kg body weight (Dataset C) for 8 weeks.
as §3, with “Vivo Study 3—EGCg Supplementation-Male SD” for “Vivo Study 2—EGCg Supplementation-Male SD”, “access to either AIN-93M diet (Dataset D) or AIN-93M diet” for “access to AIN-93M diet”, “Teavigo® at 50 mg/kg body” for “Teavigo® at 200 mg/kg body”, “weight (Dataset E) for 8” for “weight (Dataset C) for 8”
(§4) Preparation of Muscle Lysates-Whole gastrocnemius muscles were collected from euthanized rats (Dataset A, Dataset B, Dataset C, Dataset D, and Dataset E) and flash-frozen on liquid nitrogen and stored in aluminum foil at −80° C. Subsequently, the gastrocnemius muscle samples were partially thawed on dry ice. Approximately 200 mg of tissue was obtained from each muscle sample by mechanical biopsy punch. The specimens were quickly pulverized on liquid nitrogen and transferred to a 15 mL conical tube and weighed. A mild, detergent-free lysis buffer (9×) was added to the dried specimen in the conical tube. 9× Lysis buffer (50 mM Tris.HCl, 2 mM EDTA, pH 7.4/NaOH) was supplemented with a mammalian protease inhibitor cocktail (Sigma-Aldrich, Inc.) at a 1:200 dilution and stored on ice. The specimens were then vortexed for 10 seconds ahead of homogenization at 25×1000 rpm for approximately 10 seconds. The lysate was vortexed again for 10 seconds and transferred to a 1.5 mL tube. Lysates were centrifuged/clarified for 5 minutes at 11000 rpm at 4° C. in a standard table-top Eppendorf centrifuge. Supernatant (1 mL) was aliquotted to a 2 mL cryotube and stored at −80° C. Lysates were analyzed by Myriad Rules Based Medicine (Austin, Tex.) on the RodentMAP® v.2.0 Antigens and Rat METABOLIC® multi-analyte profiling platforms.

[2] = system: interleukin-1A (IL1A); assay: IL1A level after 8 weeks of dietary EGCg supplementation in aged SD rats (multi-analyte profiling); assay type: in vivo, Sprague Dawley rat; details: for IL1A: gastrocnemius muscle lysate, 22 mos at sacrifice
Description: as §1, §2, §3
as §3, with “Vivo Study 3—EGCg Supplementation-Male SD” for “Vivo Study 2—EGCg Supplementation-Male SD”, “access to either AIN-93M diet (Dataset D) or AIN-93M diet” for “access to AIN-93M diet”, “Teavigo® at 50 mg/kg body” for “Teavigo® at 200 mg/kg body”, “weight (Dataset E) for 8” for “weight (Dataset C) for 8”
as §4

[3] = system: gastrocnemius muscle; assay: Gastrocnemius muscle wet weight in the aged SD rat model of sarcopenia; assay type: in vivo, Sprague Dawley rat; details: 8 weeks
Description: (§5) Example 4 illustrates the effect of 8 weeks of dietary EGCg supplementation in the aged Sprague Dawley (SD) rat model of sarcopenia. More particularly, the level of myostatin in gastrocnemius muscle lysates of young SD rats (“young”), aged SD rats (“old”), and aged SD rats administered EGCg (“old-EGCg”) was analyzed and compared.
In Vivo Study—EGCg Supplementation-Male SD rats (20 months old) were purchased from Harlan (Indianapolis, Ind.). The rats were single-housed in cages with hardwood chip bedding and were exposed to a 12-hour light cycle. For 1 week, rats had ad libitum access to purified diet AIN-93M (Research Diets, #D10012M) and water during adaptation to the animal facility. The AIN-93M diet typically comprises about 13% (by weight) protein, about 73% (by weight) carbohydrate, and about 4% (by weight) fat, and has an energy content of about 3.77 kcal/gram. Subsequently, the rats were given ad libitum access to AIN-93M diet supplemented with EGCg (>95%) (Teavigo, DSM) at 200 mg/kg body weight (n=12) (“old-EGCg” or “EGCg supplemented”) or control AIN-93 diet (n=11) (“old” or “Control”) for 8 weeks.
as §4, with “rats, weighed,” for “rats (Dataset A, Dataset B, Dataset C, Dataset D, and Dataset E)”, “Lysates were centrifuged/clarified for 5 minutes at 11000 rpm at 4° C. in a standard table-top Eppendorf centrifuge. Supernatant (1 mL) was aliquotted to a 2 mL cryotube and stored at −80° C. Lysates were analyzed by Myriad Rules Based Medicine (Austin, Tex.) on the RodentMAP® v.2.0 Antigens and Rat METABOLIC® multi-analyte profiling platforms.” left out

[4] = system: myostatin; assay: Western blot of myostatin in gastrocnemius muscle lysates of aged SD rats; assay type: in vivo, Sprague Dawley rat; details: EGCg 200 mg/kg body weight, 8 weeks
Description: as §5
In Vivo Study—EGCg Supplementation-Male SD rats (20 months old) were purchased from Harlan (Indianapolis, Ind.). The rats were single-housed in cages with hardwood chip bedding and were exposed to a 12-hour light cycle. For 1 week, rats had ad libitum access to purified diet AIN-93M (Research Diets, #D10012M) and water during adaptation to the animal facility. The AIN-93M diet typically comprises about 13% (by weight) protein, about 73% (by weight) carbohydrate, and about 4% (by weight) fat, and has an energy content of about 3.77 kcal/gram. Subsequently, the rats were given ad libitum access to AIN-93M diet supplemented with EGCg (>95%) (Teavigo, DSM) at 200 mg/kg body weight (n=12) (“old-EGCg” or “EGCg supplemented”) or control AIN-93 diet (n=11) (“old” or “Control”) for 8 weeks. […]
Western blot analysis was carried out using anti-myostatin antibodies (Anti-GDF8/Myostatin antibody-Cat.# ab996-Abcam). […] Blots were scanned by densitometry to quantitate differences. […]

[5] = system: myostatin in C2C12 myotubes; assay: Western blot of myostatin expression in serum starved C2C12 myotubes; assay type: cell-based; details: for Myostatin (% control): 24 hrs, NC = 100, No Serum = 315
Description: Example 5 illustrates the effect of EGCg on expression of myostatin in serum starved C2C12 myotubes. C2C12 myoblasts were passaged in DMEM supplemented with 10% fetal calf serum (FCS), 1% glutamine, and 1% penicillin-streptomycin under an atmosphere of 10% CO2 in air at 37° C. When the myoblasts reached about 80% confluency, they were differentiated into myotubes in DMEM containing 2% horse serum (HS), with medium changes every 2 days. Differentiation was complete in 5-7 days, and the myotubes remained viable for a further 4-5 days.
To induce protein degradation in the myotubes, HS-supplemented DMEM media was replaced with DMEM medium without any serum for 24 hrs, while the negative control group of myotubes (“NC”) was not deprived of serum (i.e., the NC group was re-fed with DMEM media containing 2% HS). Myotubes were treated with EGCg (10 μM and 25 μM) over this serum starvation period. Western blot analysis was carried out on cell lysates as described in Example 4.
FIG. 4 and Table 5 illustrate the expression of myostatin in the non-serum starved control cells (“NC”), serum starved control cells (“No Serum”), and EGCg treated serum starved cells (“No Serum+10 μM EGCg” and “No Serum+25 μM EGCg”). The densitometric analysis was based on three separate blots. Results are expressed as mean plus S.E.M., and statistical analysis between groups was determined by one-way ANOVA followed by Tukey's test. The difference from the “NC” group is indicated as “a” (p<0.01), while the difference from the “No Serum” group is indicated as “b” (p<0.01).

[6] = 8 weeks of dietary EGCg supplementation, aged SD rats
[7] = Dataset C, EGCg 200 mg/kg bw in diet, 8 weeks, Quantitative Assay I
[8] = Dataset E, EGCg 50 mg/kg bw in diet, 8 weeks, Quantitative Assay II
[9] = muscle, EGCg 50 mg/kg bw v. control diet, 22 mos, n.s.
[10] = serum, EGCg 200 mg/kg bw, 8 weeks, n.s.

epigallocatechin-3-gallate [EGCg]
level of VEGF in gastrocnemius muscle (in words) [1, 6]: significant increase
VEGF [1, 7]: 229 pg/mL
VEGF [1, 8]: 479 pg/mL
VEGF % change Dataset E/Dataset D [1, 9]: −5% (n.s.)
VEGF, Serum, Dataset C (EGCg Supplemented - 22 mos.) v. Dataset B (25 mos.) [1, 10]: −15% (n.s.)
level of IL1A in gastrocnemius muscle (in words) [2, 6]: significant decrease
IL1A [2, 7]: 14.3 pg/mL
IL1A [2, 8]: 28.0 pg/mL
IL1A % change Dataset E/Dataset D [2, 9]: −12% (n.s.)
IL1A, Serum, Dataset C (EGCg Supplemented - 22 mos.) v. Dataset B (25 mos.) [2, 10]: −8% (n.s.)
gastrocnemius muscle wet weight compared to Control rats (in words) ([3]; EGCg 200 mg/kg body weight): significant increase
Muscle wet weight % change from control ([3]; gastrocnemius, EGCg 200 mg/kg body weight in diet): +5.12%
Muscle Wet Weight (grams) ([3]; gastrocnemius, EGCg 200 mg/kg body weight in diet, n=12, p < 0.05 compared to Control): 3.00 ± 0.03 grams
intramuscular myostatin levels compared to old rats without EGCg (in words) ([4]; western blot): decrease
Myostatin (% cage control) ([4]; Old-EGCg rats (22 months old), single rats (ID 3, 6, 9), densitometry, Old rats 700-800): 80 % cage control and 140 % cage control and 120 % cage control
Myostatin (% control) ([5]; No Serum + 10 μM EGCg): 55 % control
Myostatin (% control) ([5]; No Serum + 25 μM EGCg): 43 % control
myostatin levels compared to the No Serum group (in words) ([5]; serum starved C2C12 myotubes, EGCg 10 μM and 25 μM): significantly lower; also recorded: decrease
